# Like-named read-outs stand apart in the source and are kept apart here.
# How the values were obtained:
# [1] = tested on: Primary human preadipocytes; assay: Alamar blue (resazurin) cell viability assay on preadipocytes; type: cell-based; settings: for viability at 30 µM / viability at 50 µM / viability at 100 µM / viability at 300 µM / viability at 10 µM: read-out: Viability Preadipocytes (%); for IC50: viability, 48 hrs after compound incubation, read-out: IC50 [µM] Pre-ad ipocytes
# Protocol: (§1) The following experimental setup was used for determination of adipocytolytic potential of test compounds with preadipocytes and mature adipocytes: • Primary human preadipocytes (PromoCell) were seeded in Preadipocyte Growth Medium at 45000 cells/cm^2 to allow attachment overnight. Cells were cultured at 37°C and 5% CO2 until postconfluence. Differentiation was started with incubation of cells in Differentiation Medium for 7 days followed by incubation in Nutrition medium for further 14 days. After differentiation process, mature adipocytes were incubated with indicated concentration of indicated triterpenes.
# (§2) 6 replicates of each test compound concentration were tested. Each plate included a negative control and a compound interference control (for all concentrations, duplicates).
# (§3) Cell viability as surrogate for adipocytolytic potential of compounds were analysed by alamar blue assay. In brief, 20µl of a 0,1mg/ml Resazurin sodium salt (Sigma; R7017-1 G) solution was added to each well 48 hrs after compound incubation. The cells were incubated for 90 min at 37°C and 5% CO2 and the resulting conversion of resazurin to resorufin was measured by a fluorescence plate reader at 590 nm. Vehicle controls were set as 100%. IC50-values were analysed using SigmaBlotV13.
# [2] = tested on: mature adipocytes; assay: Alamar blue (resazurin) cell viability assay on mature adipocytes, surrogate for adipocytolytic potential; type: cell-based, human; settings: for IC50: viability, 48 hrs after compound incubation; for lower IC50 value compared to deoxycholic acid (difference, higher adipocytolytic effect): IC50 ratio versus deoxycholic acid, preadipocytes and adipocytes
# Protocol: as §1, §2, §3
# [3] = tested on: adipocytes; assay: LDH release from adipocytes (indicative for membrane damage); type: cell-based, human; settings: compared with deoxycholate; far not as high as 4fold
# [4] = tested on: adipocytes; assay: Caspase-Glo 3/7 Assay, apoptosis induction in adipocytes; type: cell-based, human; settings: for Apoptosis Adipocytes (%): basal apoptosis (vehicle) = 100%
# Protocol: as §1
# For analysing the potential of compounds to induce apoptosis the Caspase-Glo® 3/7 Assay (Promega) was used as recommended by the supplier. In brief, 100µl Caspase Reagent were added to 100µl cell culture medium and cells were incubated at 37°C and 5% CO2 for 1 hr. Luminescence signal was measured with a SynergyH4 plate reader. Vehicle controls were used to define basal apoptosis as 100%. Table 1 Impact on viability of adipocytes after 48h incubation with indicated compound in increasing concentration
# [5] = Homo sapiens, Adipocyte, 48 h, read-out: Viability Adipocytes (%), 10 µM, 48h incubation, vehicle controls = 100%
# [6] = Homo sapiens, Adipocyte, 48 h, read-out: Viability Adipocytes (%), 30 µM, 48h incubation, vehicle controls = 100%
# [7] = Homo sapiens, Adipocyte, 48 h, read-out: Viability Adipocytes (%), 50 µM, 48h incubation, vehicle controls = 100%
# [8] = Homo sapiens, Adipocyte, 48 h, read-out: Viability Adipocytes (%), 100 µM, 48h incubation, vehicle controls = 100%
# [9] = Homo sapiens, Adipocyte, 48 h, read-out: Viability Adipocytes (%), 300 µM, 48h incubation, vehicle controls = 100%
# [10] = 10 µM, 48h incubation, vehicle controls = 100%
# [11] = 30 µM, 48h incubation, vehicle controls = 100%
# [12] = 50 µM, 48h incubation, vehicle controls = 100%
# [13] = 100 µM, 48h incubation, vehicle controls = 100%
# [14] = 300 µM, 48h incubation, vehicle controls = 100%
# [15] = Homo sapiens, Adipocyte, 48 h, 10 µM, 48h incubation, vehicle controls = 100%, read-out: Viability Adipocytes (%)
# [16] = Homo sapiens, Adipocyte, 48 h, 30 µM, 48h incubation, vehicle controls = 100%, read-out: Viability Adipocytes (%)
# [17] = Homo sapiens, Adipocyte, 48 h, 50 µM, 48h incubation, vehicle controls = 100%, read-out: Viability Adipocytes (%)
# [18] = Homo sapiens, Adipocyte, 48 h, 100 µM, 48h incubation, vehicle controls = 100%, read-out: Viability Adipocytes (%)
# [19] = Homo sapiens, Adipocyte, 48 h, 300 µM, 48h incubation, vehicle controls = 100%, read-out: Viability Adipocytes (%)
SMILES,viability at 30 µM ([1]; 48 h) [%],viability at 50 µM ([1]; 48 h) [%],viability at 100 µM ([1]; 48 h) [%],viability at 300 µM ([1]; 48 h) [%],IC50 [1] [µM],"viability at 10 µM [2, 5] [%]","viability at 30 µM [2, 6] [%]","viability at 50 µM [2, 7] [%]","viability at 100 µM [2, 8] [%]","IC50 ([2]; Homo sapiens, Adipocyte) [µM]","viability at 10 µM [1, 10] [%]","viability at 30 µM [1, 11] [%]","viability at 50 µM [1, 12] [%]","viability at 100 µM [1, 13] [%]","viability at 300 µM [1, 14] [%]","viability at 10 µM [2, 15] [%]","viability at 30 µM [2, 16] [%]","viability at 50 µM [2, 17] [%]","viability at 100 µM [2, 18] [%]","viability at 300 µM [2, 19] [%]",further results
"CC1(C)CC[C@]2(C(=O)O)CC[C@]3(C)C(=CC[C@@H]4[C@@]5(C)CC[C@H](O)C(C)(C)[C@@H]5CC[C@]43C)[C@@H]2C1 [Oleanolic acid, (4aS,6aR,6aS,6bR,8aR,10S,12aR,14bS)-10-hydroxy-2,2,6a,6b,9,9,12a-heptamethyl-1,3,4,5,6,6a,7,8,8a,10,11,12,13,14b-tetradecahydropicene-4a-carboxylic acid]",79.1,83.4,53.3,0,125,114,110,117,32.4,92.8,–,–,–,–,–,–,–,–,–,–,"viability at 300 µM [2, 9]: 15.8%; lower IC50 value compared to deoxycholic acid (difference, higher adipocytolytic effect) [2]: 2.5 fold"
"CC1(C)CC[C@]2(C(=O)O)CC[C@]3(C)C(=CC[C@@H]4[C@@]5(C)C[C@@H](O)[C@H](O)C(C)(C)[C@@H]5CC[C@]43C)[C@@H]2C1 [Maslinic acid, (4aS,6aR,6aS,6bR,8aR,10R,11R,12aR,14bS)-10,11-dihydroxy-2,2,6a,6b,9,9,12a-heptamethyl-1,3,4,5,6,6a,7,8,8a,10,11,12,13,14b-tetradecahydropicene-4a-carboxylic acid]",–,–,–,–,54.3,–,–,–,–,53.4,96.4,76,45.6,2.42,0,96.9,76.7,~50,4.86,0.3,"Viability Adipocytes (%) [2, 12]: 47.08%; LDH release (indicative for membrane damage) from the adipocytes [3]: higher; Apoptosis Adipocytes (%) ([4]; 30 µM, 6 hrs): 97.17%; Apoptosis Adipocytes (%) ([4]; 30 µM, 48hrs): 121.70%; Apoptosis Adipocytes (%) ([4]; 50 µM, 6 hrs): 126.43%; Apoptosis Adipocytes (%) ([4]; 50 µM, 48hrs): 116.95%; max. apoptosis induction over basal levels ([4]; 100 µM after 6 hrs): 6.6 fold; Apoptosis Adipocytes (%) ([4]; 100 µM, 6 hrs): 662.48%; Apoptosis Adipocytes (%) ([4]; 100 µM, 48hrs): 304.15%; Apoptosis Adipocytes (%) ([4]; 200 µM, 48hrs): 378.25%; Apoptosis Adipocytes (%) ([4]; 300 µM, 6 hrs): 398.94%; Apoptosis Adipocytes (%) ([4]; 300 µM, 48hrs): 238.76%; pro-apoptotic capacity ([4]; summary of the apoptosis data): clear pro-apoptotic capacity"
"C=C(C)[C@@H]1CC[C@]2(C(=O)O)CC[C@]3(C)[C@H](CC[C@@H]4[C@@]5(C)CC[C@H](O)C(C)(C)[C@@H]5CC[C@]43C)[C@@H]12 [Betulinic acid, (3β)-3-hydroxy-lup-20(29)-en-28-oic acid]",–,–,–,–,35.5,–,–,–,–,72,81.8,48.5,45.1,17.5,0.45,104,85.6,70.7,32.3,4.9,–
"C[C@H](CCC(=O)O)[C@H]1CC[C@H]2[C@@H]3CC[C@@H]4C[C@H](O)CC[C@]4(C)[C@H]3C[C@H](O)[C@]12C [Deoxycholic acid, reference compound]",–,–,–,–,232,–,–,–,–,244,96.2,92.8,95.6,98,26.1,107,–,95.6,94.3,22.1,"viability at 200 µM ([2]; Homo sapiens, Adipocyte, 48 h, 200 µM, concentration required for 50%-decrease in viability): ~50%"
"C[C@H]1[C@H](C)CC[C@]2(C(=O)O)CC[C@]3(C)C(=CC[C@@H]4[C@@]5(C)C[C@@H](O)[C@H](O)C(C)(C)[C@@H]5CC[C@]43C)[C@H]12 [Corosolic acid, (1S,2R,4aS,6aR,6aS,6bR,8aR,10R, 11R,12aR,14bS)-10,11-Dihydroxy-1,2,6a,6b,9,9,12a-heptamethyl-2,3,4,5,6,6a,7,8,8a,10,11,12,13,14b-tetradecahydro-1H-picene-4a-carboxylic acid]",68.6,20.4,0,0,43.1,92.9,60.5,45.3,6.06,45,–,–,–,–,–,–,–,–,–,–,"viability at 10 µM ([1]; 48 h): 94.7%; viability at 300 µM [2, 9]: 0.47%"
"C[C@H]1[C@H](C)CC[C@]2(C(=O)O)CC[C@]3(C)C(=CC[C@@H]4[C@@]5(C)CC[C@H](O)C(C)(C)[C@@H]5CC[C@]43C)[C@H]12 [Ursolic acid, (1S,2R,4aS,6aR,6aS,6bR,8aR,10S,12aR,14bS)-10-hydroxy-1,2,6a,6b,9,9,12a-heptamethyl-2,3,4,5,6,6a,7,8,8a,10,11,12,13,14b-tetradecahydro-1H-picene-4a-carboxylic acid]",–,–,–,–,20.1,–,–,–,–,24.4,74.8,12.7,0.32,0,0,92.4,28.9,14.9,13.4,10.3,"lower IC50 value compared to deoxycholic acid (difference, higher adipocytolytic effect) [2]: about 10 fold"

# — patent EP3124047A1, “PENTACYCLIC TRITERPENOIDS FOR INJECTION LIPOLYSIS” (Merz Pharma GmbH & Co. KGaA, priority 2015, dated 2017)
